“And” between values parts separate entries of the source, which are not always exact repeats. Identical values can stand only once. Inconclusive results and toxic doses are left out.
Test system: L1210 leukemia ip in BDF1 mice, survival T/C
Test: NCI In Vivo Anticancer Drug Screen. Data for tumor model L1210 Leukemia (intraperitoneal) in B6D2F1 (BDF1) mice
Conditions: endpoint: mean survival time, higher = longer survival
How it was run: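 Antitumor effect is assessed in tumor-bearing animals. Survival in the compound arm is compared with a vehicle-dosed control arm and expressed as their quotient.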

[1] = dose: 100.0 mg/kg/injection, schedule: Q01DX001 (ip), vehicle: Klucel (hydroxypropylcellulose) (HPC)
[2] = dose: 200.0 mg/kg/injection, schedule: Q01DX001 (ip), vehicle: Klucel (hydroxypropylcellulose) (HPC)
[3] = dose: 400.0 mg/kg/injection, schedule: Q01DX001 (ip), vehicle: Klucel (hydroxypropylcellulose) (HPC)
[4] = dose: 100.0 mg/kg/injection, schedule: Q01DX001 (ip), vehicle: saline
[5] = dose: 200.0 mg/kg/injection, schedule: Q01DX001 (ip), vehicle: saline
[6] = dose: 400.0 mg/kg/injection, schedule: Q01DX001 (ip), vehicle: saline
[7] = dose: 150.0 mg/kg/injection, schedule: Q01DX001 (ip), vehicle: other

For `CC[N+](C)(CC)CCC[n+]1c(-c2ccccc2)c2cc(N)ccc2c2ccc(N)cc21`, the T/C (dose: 1.56 mg/kg/injection, schedule: Q01DX009 (ip), vehicle: saline) was 104 % of control, the T/C (dose: 1.56 mg/kg/injection, schedule: Q04DX003 (ip), vehicle: saline) was 100 % of control and the T/C (dose: 3.12 mg/kg/injection, schedule: Q01DX009 (ip), vehicle: saline) was 109 % of control and 110 % of control. For the same molecule, the T/C (dose: 3.12 mg/kg/injection, schedule: Q04DX003 (ip), vehicle: saline) was 109 % of control, the T/C (dose: 6.25 mg/kg/injection, schedule: Q01DX009 (ip), vehicle: saline) was 100 % of control and 110 % of control and the T/C (dose: 6.25 mg/kg/injection, schedule: Q04DX003 (ip), vehicle: saline) was 112 % of control. The T/C (dose: 6.25 mg/kg/injection, schedule: Q04DX003 (ip), vehicle: water) was 98 % of control and the T/C (dose: 12.5 mg/kg/injection, schedule: Q04DX003 (ip), vehicle: water) was 93 % of control.
For `O=C(Nc1ccc(Br)cc1C(F)(F)F)C(F)(F)F`, the T/C (dose: 50.0 mg/kg/injection, schedule: Q04DX003 (ip), vehicle: Klucel (hydroxypropylcellulose) (HPC)) was 102 % of control, the T/C [1] was 100 % of control and the T/C (dose: 100.0 mg/kg/injection, schedule: Q04DX003 (ip), vehicle: Klucel (hydroxypropylcellulose) (HPC)) was 104 % of control. For the same molecule, the T/C [2] was 94 % of control, the T/C (dose: 200.0 mg/kg/injection, schedule: Q04DX003 (ip), vehicle: Klucel (hydroxypropylcellulose) (HPC)) was 112 % of control and the T/C [3] was 97 % of control. For the same molecule, the T/C (dose: 400.0 mg/kg/injection, schedule: Q04DX003 (ip), vehicle: Klucel (hydroxypropylcellulose) (HPC)) was 105 % of control.
For `O=C1OC(c2ccc([N+](=O)[O-])cc2)=N/C1=C\c1ccc2c(c1)OCO2`, the T/C (dose: 100.0 mg/kg/injection, schedule: Q04DX002 (ip), vehicle: saline with Tween-80) was 92 % of control and the T/C (dose: 400.0 mg/kg/injection, schedule: Q04DX002 (ip), vehicle: saline with Tween-80) was 87 % of control.
With `O=[N+]([O-])/C=C/c1ccc([N+](=O)[O-])cc1Cl` the T/C (dose: 12.5 mg/kg/injection, schedule: Q01DX009 (ip), vehicle: saline) was 101 % of control, the T/C (dose: 25.0 mg/kg/injection, schedule: Q01DX009 (ip), vehicle: saline) was 103 % of control and the T/C (dose: 50.0 mg/kg/injection, schedule: Q01DX001 (ip), vehicle: saline) was 100 % of control. For the same molecule, the T/C (dose: 50.0 mg/kg/injection, schedule: Q01DX009 (ip), vehicle: saline) was 108 % of control, the T/C (dose: 50.0 mg/kg/injection, schedule: Q04DX003 (ip), vehicle: saline with Tween-80) was 119 % of control and the T/C [4] was 93 % of control. The T/C [5] was 102 % of control.
In the case of `CCN(CC)CCOc1ccc(N)cc1`, the T/C [4] is reported as 94 % of control, the T/C [5] is reported as 94 % of control and the T/C [6] is reported as 100 % of control.
In the case of `CCCCCCCCc1c(N)nc(N)[nH]c1=O`, the T/C [1] is reported as 99 % of control, the T/C [2] is reported as 92 % of control and the T/C [3] is reported as 92 % of control.
In the case of `COC1(C(=O)OOC(C)(C)C)CC1(c1ccccc1)c1ccccc1` (centres undefined), the T/C (dose: 50.0 mg/kg/injection, schedule: Q01DX001 (ip), vehicle: Klucel (hydroxypropylcellulose) (HPC)) is reported as 107 % of control, the T/C [1] is reported as 102 % of control and the T/C [2] is reported as 100 % of control.
In the case of `O=C(C#Cc1ccccc1)c1ccccc1`, the T/C (dose: 5.0 mg/kg/injection, schedule: Q01DX009 (ip), vehicle: Klucel (hydroxypropylcellulose) (HPC)) is reported as 98 % of control, the T/C (dose: 5.0 mg/kg/injection, schedule: Q04DX003 (ip), vehicle: Klucel (hydroxypropylcellulose) (HPC)) is reported as 101 % of control and the T/C (dose: 10.0 mg/kg/injection, schedule: Q01DX009 (ip), vehicle: Klucel (hydroxypropylcellulose) (HPC)) is reported as 96 % of control. The T/C (dose: 10.0 mg/kg/injection, schedule: Q04DX003 (ip), vehicle: Klucel (hydroxypropylcellulose) (HPC)) was 103 % of control, the T/C (dose: 20.0 mg/kg/injection, schedule: Q01DX001 (ip), vehicle: Klucel (hydroxypropylcellulose) (HPC)) was 96 % of control and the T/C (dose: 20.0 mg/kg/injection, schedule: Q01DX009 (ip), vehicle: Klucel (hydroxypropylcellulose) (HPC)) was 102 % of control. For the same molecule, the T/C (dose: 20.0 mg/kg/injection, schedule: Q04DX003 (ip), vehicle: Klucel (hydroxypropylcellulose) (HPC)) was 104 % of control.
`NC(N)=NNCCOc1c(Cl)cccc1Cl` was tested, and the T/C (dose: 25.0 mg/kg/injection, schedule: Q01DX001 (ip), vehicle: carboxymethylcellulose (CMC)) was 116 % of control, the T/C (dose: 50.0 mg/kg/injection, schedule: Q01DX001 (ip), vehicle: carboxymethylcellulose (CMC)) was 101 % of control and the T/C (dose: 100.0 mg/kg/injection, schedule: Q01DX001 (ip), vehicle: carboxymethylcellulose (CMC)) was 111 % of control.
With `CCCOc1ccc(/C=N\N=C\c2ccc(OCCC)cc2)cc1` the T/C (dose: 100.0 mg/kg/injection, schedule: Q01DX009 (ip), vehicle: saline with Tween-80) was 94 % of control, the T/C (dose: 200.0 mg/kg/injection, schedule: Q01DX009 (ip), vehicle: saline with Tween-80) was 94 % of control and the T/C (dose: 400.0 mg/kg/injection, schedule: Q01DX009 (ip), vehicle: saline with Tween-80) was 91 % of control.
In the case of `CSc1nc(-c2ccc([N+](=O)[O-])cc2)oc1/N=C/c1ccc([N+](=O)[O-])cc1`, the T/C (dose: 100.0 mg/kg/injection, schedule: Q04DX002 (ip), vehicle: Klucel (hydroxypropylcellulose) (HPC)) is reported as 96 % of control, the T/C (dose: 200.0 mg/kg/injection, schedule: Q04DX002 (ip), vehicle: Klucel (hydroxypropylcellulose) (HPC)) is reported as 96 % of control and the T/C (dose: 400.0 mg/kg/injection, schedule: Q04DX002 (ip), vehicle: Klucel (hydroxypropylcellulose) (HPC)) is reported as 96 % of control.
In the case of `Clc1ccnc(NC2CCCCC2)c1`, the T/C [4] is reported as 92 % of control, the T/C [5] is reported as 98 % of control and the T/C [6] is reported as 100 % of control.
For `Cc1ccccc1S(=O)(=O)NSc1ccccc1[N+](=O)[O-]`, the T/C (dose: 75.0 mg/kg/injection, schedule: Q01DX001 (ip), vehicle: other) was 101 % of control, the T/C [7] was 95 % of control and the T/C (dose: 300.0 mg/kg/injection, schedule: Q01DX001 (ip), vehicle: other) was 95 % of control.
With `O=C(COc1ccccc1[N+](=O)[O-])Nc1ccccc1C(=O)O` the T/C (dose: 100.0 mg/kg/injection, schedule: Q01DX001 (ip), vehicle: saline with Tween-80) was 92 % of control and the T/C (dose: 200.0 mg/kg/injection, schedule: Q01DX001 (ip), vehicle: saline with Tween-80) was 92 % of control.
With `N#CCCN1CCCCCC1` the T/C (dose: 15.0 mg/kg/injection, schedule: Q01DX009 (ip), vehicle: saline with Tween-80) was 98 % of control, the T/C (dose: 30.0 mg/kg/injection, schedule: Q01DX009 (ip), vehicle: saline with Tween-80) was 95 % of control and the T/C (dose: 30.0 mg/kg/injection, schedule: Q04DX003 (ip), vehicle: saline with Tween-80) was 92 % of control. For the same molecule, the T/C (dose: 60.0 mg/kg/injection, schedule: Q01DX009 (ip), vehicle: saline with Tween-80) was 104 % of control and the T/C (dose: 60.0 mg/kg/injection, schedule: Q04DX003 (ip), vehicle: saline with Tween-80) was 109 % of control.
For `NCCCCCCN` (tested in a mixture with another compound), the T/C (dose: 3.0 mg/kg/injection, schedule: Q01DX009 (ip), vehicle: acid diluted with saline) was 101 % of control, the T/C (dose: 3.0 mg/kg/injection, schedule: Q04DX003 (ip), vehicle: acid diluted with saline) was 104 % of control and the T/C (dose: 6.0 mg/kg/injection, schedule: Q01DX009 (ip), vehicle: acid diluted with saline) was 108 % of control. For the same molecule, the T/C (dose: 6.0 mg/kg/injection, schedule: Q04DX003 (ip), vehicle: acid diluted with saline) was 89 % of control and the T/C (dose: 12.0 mg/kg/injection, schedule: Q04DX003 (ip), vehicle: acid diluted with saline) was 106 % of control.
For `CCCc1ccc(C(=O)O)cc1`, the T/C (dose: 100.0 mg/kg/injection, schedule: Q01DX009 (ip), vehicle: Klucel (hydroxypropylcellulose) (HPC)) was 95 % of control, the T/C (dose: 200.0 mg/kg/injection, schedule: Q01DX009 (ip), vehicle: Klucel (hydroxypropylcellulose) (HPC)) was 91 % of control and the T/C (dose: 400.0 mg/kg/injection, schedule: Q01DX009 (ip), vehicle: Klucel (hydroxypropylcellulose) (HPC)) was 98 % of control.
`Cn1nc(Br)c(=O)n(C(c2ccccc2)c2ccccc2)c1=O` was tested, and the T/C (dose: 22.0 mg/kg/injection, schedule: Q01DX015 (ip), vehicle: other) was 110 % of control, the T/C (dose: 33.0 mg/kg/injection, schedule: Q01DX015 (ip), vehicle: other) was 103 % of control and the T/C (dose: 44.0 mg/kg/injection, schedule: Q01DX001 (ip), vehicle: other) was 100 % of control. The T/C (dose: 50.0 mg/kg/injection, schedule: Q01DX015 (ip), vehicle: other) was 103 % of control, the T/C (dose: 66.0 mg/kg/injection, schedule: Q01DX001 (ip), vehicle: other) was 102 % of control and 108 % of control and the T/C (dose: 75.0 mg/kg/injection, schedule: Q01DX015 (ip), vehicle: other) was 106 % of control. The T/C [7] was 100 % of control and 104 % of control, the T/C (dose: 200.0 mg/kg/injection, schedule: Q01DX001 (ip), vehicle: other) was 154 % of control and the T/C (dose: 400.0 mg/kg/injection, schedule: Q01DX001 (ip), vehicle: other) was 154 % of control.
